# Test results: patent US12583848B2, “Isoxazole-3-carboxamide derivatives and their use for treatment of diseases caused by virus infection” (Collaborations Pharmaceuticals, Inc., priority 2019, dated 2026)
# Experiment: in vitro
smiles,measurement,value
"Cc1cc(-c2noc(C(F)(F)F)n2)ccc1OCCCc1cc(C(=O)N(C)C)no1 [Compound 8, N,N-dimethyl-5-(3-{2-methyl-4-[5-(trifluoromethyl)-1,2,4-oxadiazol-3-yl]phenoxy}propyl)isoxazole-3-carboxamide]",CC50,52 µM
